Patent US20220248678A1, “HERBICIDAL COMPOUNDS” (SYNGENTA CROP PROTECTION AG, priority 2019, published 2022)

Columns and labels:
Assay in all cases: Post-emergence efficacy, glasshouse
Format in all cases: in vivo
Settings in all cases: after 13 days, 100=total damage to plant, 0=no damage to plant
[1] = test system: Amaranthus palmeri (AMAPA)
Protocol: (§1) Seeds of a variety of test species were shown in standard soil in pots. After cultivation for 14 days (post-emergence) under controlled conditions in a glasshouse (at 24/16° C., day/night; 14 hours light; 65% humidity), the plants were sprayed with an aqueous spray solution derived from the dissolution of the technical active ingredient for each of compounds 1 to 26 from Table A above, in a small amount of acetone and a special solvent and emulsifier mixture referred to as IF50 (11.12% Emulsogen EL360 TM+44.44% N-methylpyrrolidone+44.44% Dowanol DPM glycol ether), to create a 50 g/I solution which was then diluted to required concentration using 0.25% or 1% Empicol ESC70 (Sodium lauryl ether sulphate)+1% ammonium sulphate in water as diluent. These spray test compositions are described as composition numbers C1 to C26, with the numerical value corresponding to the compound number from Table A.
(§2) The test plants were then grown in a glasshouse under controlled conditions (at 24/16° C., day/night; 14 hours light; 65% humidity) and watered twice daily. After 13 days the test was evaluated (100=total damage to plant; 0=no damage to plant).
(§3) Ipomoea hederacea (IPOHE), Euphorbia heterophylla (EPHHL), Chenopodium album (CHEAL), Amaranthus palmeri (AMAPA), Lolium perenne (LOLPE), Digitaria sanguinalis (DIGSA), Eleusine indica (ELEIN), Echinochloa crus-galli (ECHCG), Setaria faberi (SETFA)

[2] = test system: Chenopodium album (CHEAL)
Protocol: as §1, §2, §3

[3] = test system: Digitaria sanguinalis (DIGSA)
Protocol: as §1, §2, §3

[4] = test system: Echinochloa crus-galli (ECHCG)
Protocol: as §1, §2, §3

Eleusine indica (ELEIN) = test system: Eleusine indica (ELEIN)
Protocol: as §1, §2, §3

[5] = test system: Euphorbia heterophylla (EPHHL)
Protocol: as §1, §2, §3

[6] = test system: Ipomoea hederacea (IPOHE)
Protocol: as §1, §2, §3

Lolium perenne (LOLPE) = test system: Lolium perenne (LOLPE)
Protocol: as §1, §2, §3

Setaria faberi (SETFA) = test system: Setaria faberi (SETFA)
Protocol: as §1, §2, §3

SMILES | Control of weed species AMAPA ([1]; 500 g/Ha) | Control of weed species CHEAL ([2]; 500 g/Ha) | Control of weed species DIGSA ([3]; 500 g/Ha) | Control of weed species ECHCG ([4]; 500 g/Ha) | Control of weed species ELEIN (Eleusine indica (ELEIN); 500 g/Ha) | Control of weed species EPHHL ([5]; 500 g/Ha) | Control of weed species IPOHE ([6]; 500 g/Ha) | Control of weed species LOLPE (Lolium perenne (LOLPE); 500 g/Ha) | Control of weed species SETFA (Setaria faberi (SETFA); 500 g/Ha) | Control of weed species AMAPA ([1]; 1000 g/Ha) | Control of weed species CHEAL ([2]; 1000 g/Ha) | Control of weed species DIGSA ([3]; 1000 g/Ha) | Control of weed species ECHCG ([4]; 1000 g/Ha) | Control of weed species ELEIN (Eleusine indica (ELEIN); 1000 g/Ha) | Control of weed species EPHHL ([5]; 1000 g/Ha) | Control of weed species IPOHE ([6]; 1000 g/Ha) | Control of weed species LOLPE (Lolium perenne (LOLPE); 1000 g/Ha) | Control of weed species SETFA (Setaria faberi (SETFA); 1000 g/Ha) | further results
C=CCOP(=O)([O-])c1c[n+](C)nc2ccccc12 [Composition C5] | 90 | 100 | 90 | 90 | 100 | 90 | 70 | 60 | 80 |  |  |  |  |  |  |  |  |  | 
COP(=O)([O-])c1c(C)[n+](C)nc2ccccc12 [Composition C9] |  |  |  |  |  |  |  |  |  | 100 | 90 | 80 | 40 | 80 | 50 | 90 | 50 | 70 | 
CCCOP(=O)([O-])c1c[n+](C)nc2ccccc12 [Composition C21] | 100 | 100 | 100 | 70 | 100 | 100 | 100 | 70 | 100 |  |  |  |  |  |  |  |  |  | 
COc1ccc2n[n+](C)cc(P(=O)([O-])OC)c2c1 [Composition C16] |  |  |  |  |  |  |  |  |  | 100 | 90 | 80 | 90 | 100 | 90 | 70 | 50 | 80 | 
COP(=O)([O-])c1c[n+](C)nc2ccc(C)cc12 [Composition C13] | 100 | 100 | 100 | 90 | 100 | 100 | 70 | 30 | 100 |  |  |  |  |  |  |  |  |  | 
C#CCOP(=O)([O-])c1c[n+](C)nc2ccccc12 [Composition C4] |  |  |  |  |  |  |  |  |  | 100 | 100 | 100 | 90 | 100 | 100 | 100 | 90 | 100 | 
CCCCOP(=O)(O)c1c[n+](C)nc2ccccc12.O=C([O-])C(F)(F)F [Composition C2] | 60 | 70 | 60 | 30 | 40 | 100 | 80 | 30 | 60 |  |  |  |  |  |  |  |  |  | 
CCOP(=O)(O)c1c[n+](C)nc2ccccc12.O=C([O-])C(F)(F)F [Composition C1] |  |  |  |  |  |  |  |  |  | 90 | 100 | 90 | 70 | 90 | 100 | 100 | 60 | 80 | 
CCOP(=O)(O)c1c[n+](C)nc2ccccc12.[Cl-] [Composition C3] |  |  |  |  |  |  |  |  |  | 90 | 100 | 100 | 70 | 90 | 100 | 100 | 50 | 90 | 
C[n+]1cc(P(=O)([O-])Oc2ccccc2)c2ccccc2n1 [Composition C11] |  |  |  |  |  |  |  |  |  | 100 | 70 | 70 | 20 | 80 | 60 | 70 | 30 | 50 | 
COCCOP(=O)([O-])c1c[n+](C)nc2ccccc12 [Composition C10] |  |  |  |  |  |  |  |  |  | 100 | 100 | 90 | 70 | 100 | 100 | 80 | 20 | 100 | 
C[n+]1cc(P(=O)([O-])OCC2CCCO2)c2ccccc2n1 (stereo not drawn) [Composition C25] |  |  |  |  |  |  |  |  |  | 100 | 90 | 50 | 90 | 100 | 80 | 60 | 60 | 80 | 
COc1ccc2c(P(=O)([O-])OC)c[n+](C)nc2c1 [Composition C17] |  |  |  |  |  |  |  |  |  | 10 | 10 | 10 | 10 | 10 | 20 | 10 | 0 | 10 | 
CC(C)COP(=O)([O-])c1c[n+](C)nc2ccccc12 [Composition C26] |  |  |  |  |  |  |  |  |  | 100 | 90 | 60 | 60 | 90 | 100 | 60 | 40 | 90 | 
COP(=O)([O-])c1c[n+](C)nc2cc(C(F)(F)F)ccc12 [Composition C20] |  |  |  |  |  |  |  |  |  | 40 | 40 | 20 | 10 | 10 | 30 | 60 | 10 | 10 | 
CCCCOP(=O)([O-])c1c[n+](C)nc2ccccc12 [Composition C12] | 100 | 100 | 70 | 70 | 100 | 100 | 100 | 40 | 70 |  |  |  |  |  |  |  |  |  | 
COc1cccc2c(P(=O)([O-])OC)c[n+](C)nc12 [Composition C18] |  |  |  |  |  |  |  |  |  | 100 | 80 | 100 | 100 | 100 | 100 | 80 | 80 | 100 | 
C[n+]1cc(P(=O)([O-])OCC2CC2)c2ccccc2n1 [Composition C7] |  |  |  |  |  |  |  |  |  | 90 | 90 | 100 | 80 | 100 | 100 | 100 | 60 | 90 | 
C[n+]1cc(P(=O)([O-])OCc2ccccc2)c2ccccc2n1 [Composition C22] | 10 | 20 | 60 | 20 | 60 | 60 | 20 | 10 | 30 |  |  |  |  |  |  |  |  |  | 
C[n+]1cc(P(=O)([O-])OCc2ccc(F)cc2)c2ccccc2n1 [Composition C23] |  |  |  |  |  |  |  |  |  |  |  |  |  |  |  |  |  |  | Control of weed species AMAPA ([1]; 125 g/Ha): 20; Control of weed species CHEAL ([2]; 125 g/Ha): 10; Control of weed species DIGSA ([3]; 125 g/Ha): 60; Control of weed species ECHCG ([4]; 125 g/Ha): 30; Control of weed species ELEIN (Eleusine indica (ELEIN); 125 g/Ha): 40; Control of weed species EPHHL ([5]; 125 g/Ha): 40; Control of weed species IPOHE ([6]; 125 g/Ha): 10; Control of weed species LOLPE (Lolium perenne (LOLPE); 125 g/Ha): 10; Control of weed species SETFA (Setaria faberi (SETFA); 125 g/Ha): 30
